Test results as given in patent publication US20160311791A1, “NOVEL TRICYCLIC CALCIUM SENSING RECEPTOR ANTOGONISTS FOR THE TREATMENT OF OSTEOPOSOSIS” (MERCK SHARP & DOHME CORP., priority 2013, published 2016).

Biological target: T1, human CaSR (Homo sapiens, UniProt P41180)
T1 sequence (P41180 20-1078): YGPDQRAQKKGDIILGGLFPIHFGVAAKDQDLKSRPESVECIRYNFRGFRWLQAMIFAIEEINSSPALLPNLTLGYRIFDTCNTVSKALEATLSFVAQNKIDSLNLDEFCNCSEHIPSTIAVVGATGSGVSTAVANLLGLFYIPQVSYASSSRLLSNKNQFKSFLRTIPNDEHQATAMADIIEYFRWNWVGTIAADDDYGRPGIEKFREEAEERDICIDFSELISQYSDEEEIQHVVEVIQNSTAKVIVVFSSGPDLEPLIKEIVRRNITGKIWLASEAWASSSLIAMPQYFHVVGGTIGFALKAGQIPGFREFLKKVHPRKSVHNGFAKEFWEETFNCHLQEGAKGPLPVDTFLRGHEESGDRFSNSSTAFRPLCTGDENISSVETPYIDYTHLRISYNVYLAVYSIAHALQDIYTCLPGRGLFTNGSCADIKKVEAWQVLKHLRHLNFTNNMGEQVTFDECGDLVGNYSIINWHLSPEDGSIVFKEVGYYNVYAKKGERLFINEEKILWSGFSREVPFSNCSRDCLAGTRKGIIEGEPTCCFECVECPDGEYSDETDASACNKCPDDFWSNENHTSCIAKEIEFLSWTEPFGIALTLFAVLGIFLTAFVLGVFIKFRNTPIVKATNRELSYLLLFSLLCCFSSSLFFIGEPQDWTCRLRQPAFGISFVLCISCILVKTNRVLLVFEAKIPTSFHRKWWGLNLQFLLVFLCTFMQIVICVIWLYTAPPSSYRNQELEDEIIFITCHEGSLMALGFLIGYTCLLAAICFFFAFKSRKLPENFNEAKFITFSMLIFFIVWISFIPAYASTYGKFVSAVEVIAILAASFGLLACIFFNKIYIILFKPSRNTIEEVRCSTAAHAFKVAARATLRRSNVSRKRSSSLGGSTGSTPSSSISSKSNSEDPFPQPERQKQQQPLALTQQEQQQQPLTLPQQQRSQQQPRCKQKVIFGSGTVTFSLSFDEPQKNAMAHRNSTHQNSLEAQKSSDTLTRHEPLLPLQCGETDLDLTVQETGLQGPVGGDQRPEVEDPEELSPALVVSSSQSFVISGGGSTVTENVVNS
Test: CaSR FLIPR assay (calcilytic activity)
Type: cell-based
Design: expressed in transfected cells
Settings: HEK293 cells stably expressing human recombinant CaSR; 1 mM CaCl2 agonist; Tables 1-24; read-out: FLIPR ASSAY IC50
Method: Procedures for CaSR FLIPR Assay
Calcilytic activity of the compound is measured in HEK293 cells stably expressing human recombinant CaSR (HEK-CaSR) using a FLIPR^TETRA device (Molecular Devices, Sunnyvale, Calif.) according to the manufacturer's directions. […] On the day of the assay, one vial of FLIPR Calcium 4 Assay Kit reagent Component A was equilibrated to room temperature. The content of the Component A vial was diluted by adding 10 ml dilution buffer (2×loading dye). The sample was mixed by vortexing (1-2 minutes) until the contents of the vial dissolved. The Component A vial mixture was diluted with 10 ml dilution buffer. Media was aspirated from the cells and 80 μl of loading buffer was added to each well. Plates were incubated for 1 hour at 37° C. and then placed at room temperature for 10 minutes. A two-stage method of generating 10-point serial dilutions was used. Compound was serially diluted in 100% DMSO (10 point, 3-fold dilution of each compound from 2 mM in 100% DMSO). 3 μl of serially diluted compound was transferred into a second assay microplate that contained 97 μl of TETRA dilution buffer (20 mM HEPES pH7.4, 1×HBSS without Ca and Mg, 0.4 mM CaCl2, 0.4 mM MgSO4, 0.5 mM MgCl2) to create the intermediate dilution plate. After reading the base line, the compounds in 0.5% DMSO in dilution buffer were added to their respective wells as 20 μl aliquots at 6×the final drug concentration. The fluorescence signals were then read. Subsequently, 20 μl of 3.6 mM of CaCl2 agonist (1 mM final concentration) was added to each well. For background, 20 μl of TETRA dilution buffer was added instead. The protocol consisted of a pre-addition read of 10 frames (10×1 frame/sec), a post 1st addition read of 100 frames (60×1 frame/sec, 40×1 frame/3 sec), pause 3 min, a post 2nd addition read of 100 frames (60×1 frame/sec, 40×1 frame/3 sec) on a FLIPR^TETRA Plate Reader.

Compound: Cc1ccc(CC(C)(C)NC[C@@H](O)CO[C@H](C)c2cccc3c2O[C@@H]2[C@@H](C(=O)O)[C@H]32)cc1F [Example 1-4]
- IC50: 78 nM

Compound: Cc1ccc(CC(C)(C)NC[C@@H](O)CO[C@H](C)c2cccc3c2O[C@@H]2[C@@H](C(=O)O)[C@H]32)cc1C [Example 1-5]
- IC50: 230 nM

Compound: C[C@@H](OC[C@H](O)CNC(C)(C)Cc1ccc2c(c1)CCC2)c1cccc2c1O[C@@H]1[C@@H](C(=O)O)[C@H]21 [Example 1-7]
- IC50: 110 nM

Compound: Cc1ccc([C@@H](C)OC[C@H](O)CNC2(Cc3ccc4ccccc4c3)CCC2)c2c1O[C@H]1[C@H](C(=O)O)[C@@H]21 [Example 9-8]
- IC50: > 10000 nM

Compound: Cc1ccc([C@@H](C)OC[C@H](O)CNC(C)(C)CCSc2ccccc2)c2c1O[C@@H]1[C@@H](C(=O)O)[C@H]21 [Example 8-30]
- IC50: 50 nM

Compound: C[C@@H](OC[C@H](O)CNC(C)(C)Cc1ccc2c(c1)CCC2)c1cccc2c1[C@@H]1[C@H](O2)[C@H]1C(=O)O [Example 5-7]
- IC50: 25 nM

Compound: C[C@@H](OC[C@H](O)CNC(C)(C)Cc1ccc2ccccc2c1)c1cccc2c1[C@H]1[C@@H](C2)[C@@H]1C(=O)O [Example 13-6]
- IC50: 4900 nM

Compound: Cc1ccc([C@@H](C)OC[C@H](O)CNC(C)(C)Cc2ccc(Cl)cc2Cl)c2c1O[C@H]1[C@H](C(=O)O)[C@@H]21 [Example 9-9]
- IC50: 77 nM

Compound: Cc1ccc([C@@H](C)OC[C@H](O)CNC(C)(C)Cc2ccc(Cl)c(Cl)c2)c2c1O[C@@H]1[C@@H](C(=O)O)[C@H]21 [Example 8-15]
- IC50: 14 nM

Compound: Cc1cc(Cl)c([C@@H](C)OC[C@H](O)CNC(C)(C)Cc2ccc3c(c2)OCCO3)c2c1O[C@@H]1[C@@H](C(=O)O)[C@H]21 [Example 16-4]
- IC50: 41 nM

Compound: Cc1ccc([C@@H](C)OC[C@H](O)CNC(C)(C)Cc2ccc3c(c2)OCCO3)c2c1O[C@@H]1[C@@H](C(=O)O)[C@H]21 [Example 8-13]
- IC50: 22 nM

Compound: Cc1ccc([C@@H](C)OC[C@H](O)CNC(C)(C)Cc2ccc3c(c2)CCS3(=O)=O)c2c1O[C@@H]1[C@@H](C(=O)O)[C@H]21 [Example 8-27]
- IC50: > 10000 nM

Compound: C[C@@H](OC[C@H](O)CNC(C)(C)Cc1ccc(Cl)c(Cl)c1)c1cccc2c1O[C@@H]1[C@@H](C(=O)O)[C@H]21 [Example 1-13]
- IC50: 39 nM

Compound: Cc1ccc([C@@H](C)OC[C@H](O)CNC(C)(C)CSc2ccc(F)cc2)c2c1O[C@@H]1[C@@H](C(=O)O)[C@H]21 [Example 8-32]
- IC50: 1410 nM

Compound: Cc1ccc([C@@H](C)OC[C@H](O)CNC(C)(C)CCSc2ccc(F)cc2)c2c1O[C@@H]1[C@@H](C(=O)O)[C@H]21 [Example 8-31]
- IC50: 65 nM

Compound: C[C@@H](OC[C@H](O)CNC(C)(C)CN1CCc2ccccc2C1)c1cccc2c1O[C@H]1[C@H](C(=O)O)[C@@H]21 [Example 2-8]
- IC50: 7390 nM

Compound: C[C@@H](OC[C@H](O)CNC(C)(C)CC1Cc2ccccc2C1)c1cccc2c1O[C@@H]1[C@@H](C(=O)O)[C@H]21 [Example 1-3]
- IC50: 40 nM

Compound: Cc1ccc([C@@H](C)OC[C@H](O)CNC(C)(C)Cc2ccc3sccc3c2)c2c1O[C@@H]1[C@@H](C(=O)O)[C@H]21 [Example 8-12]
- IC50: 10 nM

Compound: C[C@@H](OC[C@H](O)CNC(C)(C)CCSc1ccccc1)c1cccc2c1[C@@H]1[C@H](O2)[C@H]1C(=O)O [Example 5-17]
- IC50: 150 nM

Compound: Cc1ccc([C@@H](C)OC[C@H](O)CN2CCCC2(C)Cc2ccccc2)c2c1O[C@@H]1[C@@H](C(=O)O)[C@H]21 (stereo partly drawn) [Example 8-18]
- IC50: 1330 nM

Compound: Cc1ccc([C@@H](C)OC[C@H](O)CNC(C)(C)Cc2ccc3ncccc3c2)c2c1O[C@H]1C2[C@@H]1C(=O)O (stereo partly drawn) [Example 8-25]
- IC50: 460 nM

Compound: C[C@@H](OC[C@H](O)CNC(C)(C)CC1Cc2ccccc2C1)c1cccc2c1[C@@H]1[C@H](O2)[C@H]1C(=O)O [Example 5-3]
- IC50: 35.5 nM

Compound: Cc1ccc(CC(C)(C)NC[C@@H](O)CO[C@H](C)c2cccc3c2O[C@@H]2[C@@H](C(=O)O)[C@H]32)c(F)c1 [Example 1-11]
- IC50: 140 nM

Compound: CSc1ccc(CC(C)(C)NC[C@@H](O)CO[C@H](C)c2cccc3c2[C@@H]2[C@H](C3)[C@H]2C(=O)O)cc1F [Example 13-5]
- IC50: 130 nM

Compound: C[C@@H](OC[C@H](O)CNC(C)(C)Cc1ccc2ccccc2c1)c1c(Cl)ccc2c1[C@@H]1[C@H](O2)[C@H]1C(=O)O [Example 15-1]
- IC50: 17 nM

Compound: CSc1ccc(CC(C)(C)NC[C@@H](O)CO[C@H](C)c2cccc3c2O[C@@H]2[C@@H](C(=O)O)[C@H]32)cc1F [Example 1-17]
- IC50: 165 nM

Compound: C[C@@H](OC[C@H](O)CNC(C)(C)Cc1ccc2ccccc2c1)c1cccc2c1O[C@@H]1[C@@H](C(=O)NS(=O)(=O)C3(C)CC3)[C@H]21 [Example 4-1]
- IC50: 60 nM

Compound: Cc1ccc([C@@H](C)OC[C@H](O)CNC(C)(C)Cc2ccc(Cl)c(Cl)c2)c2c1O[C@H]1[C@H](C(=O)O)[C@@H]21 [Example 9-10]
- IC50: 42 nM

Compound: C[C@@H](OC[C@H](O)CNC(C)(C)Cc1ccc2ccccc2c1)c1cccc2c1[C@H]1[C@@H](O2)[C@@H]1C(=O)O [Example 7-1]
- IC50: 80 nM

Compound: C[C@@H](OC[C@H](O)CNC(C)(C)CC1Cc2ccccc2C1)c1cccc2c1O[C@H]1[C@H](C(=O)O)[C@@H]21 [Example 2-3]
- IC50: 307 nM

Compound: C[C@@H](OC[C@H](O)CNC(C)(C)Cc1ccc2c(c1)OCCO2)c1cccc2c1O[C@@H]1[C@@H](C(=O)O)[C@H]21 [Example 1-10]
- IC50: 460 nM

Compound: C[C@@H](OC[C@H](O)CNC(C)(C)Cc1ccc2ccccc2c1)c1cccc2c1O[C@H]1[C@H](C(=O)O)[C@@H]21 [Example 2-1]
- IC50: 132 nM

Compound: Cc1ccc([C@@H](C)OC[C@H](O)CNC(C)(C)Cc2ccc(Cl)c(F)c2)c2c1O[C@@H]1[C@@H](C(=O)O)[C@H]21 [Example 8-2]
- IC50: 58.5 nM

Compound: Cc1cc(Cl)c([C@@H](C)OC[C@H](O)CNC(C)(C)Cc2ccc3sccc3c2)c2c1O[C@@H]1[C@@H](C(=O)O)[C@H]21 [Example 16-3]
- IC50: 14 nM

Compound: C[C@@H](OC[C@H](O)CNC(C)(C)Cc1ccc2c(c1)CCC2)c1cccc2c1[C@@H]1[C@H](C2)[C@H]1C(=O)O [Example 13-3]
- IC50: 88 nM

Compound: Cc1cc(Cl)c([C@@H](C)OC[C@H](O)CNC(C)(C)Cc2ccc3occc3c2)c2c1O[C@@H]1[C@@H](C(=O)O)[C@H]21 [Example 16-2]
- IC50: 17 nM

Compound: C[C@@H](OC[C@H](O)CNC(C)(C)Cc1ccc(Cl)c(Cl)c1)c1cccc2c1[C@@H]1[C@H](O2)[C@H]1C(=O)O [Example 5-12]
- IC50: 39 nM

Compound: Cc1ccc(CC(C)(C)NC[C@@H](O)CO[C@H](C)c2cccc3c2O[C@H]2[C@H](C(=O)O)[C@@H]32)cc1C [Example 2-4]
- IC50: 381 nM

Compound: CC(OC[C@H](O)CNC(C)(C)Cc1ccc2ccccc2c1)c1ccc2c(c1)C1C(O2)C1C(=O)O (stereo partly drawn) [Example 21-1]
- IC50: 2720 nM

Compound: C[C@@H](OC[C@H](O)CNC(C)(C)Cc1ccc2ccccc2c1)c1cc(F)cc2c1O[C@@H]1[C@@H](C(=O)O)[C@H]21 [Example 19-1]
- IC50: 176 nM

Compound: C[C@@H](OC[C@H](O)CNC(C)(C)Cc1ccc([S+](C)[O-])c(F)c1)c1cccc2c1[C@@H]1[C@H](O2)[C@H]1C(=O)O (stereo partly drawn) [Example 5-15]
- IC50: > 10000 nM

Compound: Cc1ccc([C@@H](C)OC[C@H](O)CNC(C)(C)Cc2ccc(Cl)c(F)c2)c2c1O[C@H]1[C@H](C(=O)O)[C@@H]21 [Example 9-2]
- IC50: 78 nM
